row,SMILES,melting point
1,Nc1ncnc2c1c(-c1ccc(Oc3ccccc3)cc1)cn2CC(=O)NCCOCCO,145 to 147 °C
2,Cc1nc2cc(C#N)ccc2n1-c1ccc(C(=O)N(C)[C@@H]2CCNC2)cc1,178 to 180 °C
3,CC(=O)CC(=O)Nc1ccc(SC(F)(F)F)cc1,120 to 122 °C
4,COc1ccc(C2CCOCC2)c2sc(NC(=O)N3CCOCC3)nc12,217 to 220 °C
5,CNc1nc(C)c(C(=O)c2ccc(N)c(N)c2)s1,115 to 125 °C
6,COc1ccc(OC)c2c1C[C@@H](O)[C@H](N1CCN(c3ccccc3C)CC1)C2 (relative stereo),217 to 219 °C
7,Cc1ccsc1C(=O)c1cccn1N,42 to 44 °C
8,Cc1cc2c(cc1OCc1ccccc1)OC[C@@H](N1CCC(O)(c3ccc(F)cc3)CC1)[C@H]2O (relative stereo),201 to 202 °C
9,COc1ncc(C(=O)Cc2c(Cl)cncc2Cl)cc1OC1CCCC1,118 to 119 °C
10,CCCCNc1cc(C(=O)OCC#N)cc(S(N)(=O)=O)c1Oc1ccccc1,159 to 161 °C
11,CN1CCN(C(=O)CN2C(=O)C(NC(=O)OCc3ccccc3)N=C(c3ccccc3)c3ccccc32)CC1 (stereo unspecified),200 to 202 °C
12,Nc1cc(C(=O)OCCN2CCCCC2)c2oc(-c3ccccc3)cc2c1,126 to 128 °C
13,Sc1nc(-c2ccccc2)c(-c2cccnc2)[nH]1,317 to 323 °C
14,CC(=NO)c1ccnc(N(C)C)c1,145 to 148 °C
15,CC(C)(C)c1ccccc1N1CCN(C(=O)c2ncoc2CCC(=O)O)CC1,180 to 181 °C
16,COC[C@@H](NC(C)=O)C(=O)NCc1ccc(I)cc1,159 to 160 °C
17,CC(C)c1cccc(C(C)C)c1NC(=O)CNC(c1ccc(F)cc1)c1ccc(F)cc1,150 to 151 °C
18,Nc1cc(N2C(=O)CN(CCCF)C2=O)c(F)cc1Cl,89 to 91 °C
19,CC1Oc2cc(CN3CCN(c4ccncc4)CC3)ccc2NC1=O (stereo unspecified),130 to 134 °C
20,O=C(C=Cc1cc([N+](=O)[O-])ccc1Cl)N1CCc2c([nH]c3ccccc23)C1c1ccc2c(c1)OCO2 (stereo unspecified),146 °C
21,COCC(=O)N1CCc2cc(S(=O)(=O)N3CCN(c4cccc(Cl)c4)CC3)ccc21,230 °C
22,CC1(C)CCC(C)(C)c2cc(C(Br)C(Br)c3ccc(C#N)cc3)ccc21 (stereo unspecified),174 to 175 °C

row,SMILES,melting point
1,Cc1ccc(S(=O)(=O)OC[C@H]2COc3cc(F)c4c(c3O2)CC(=O)N4)cc1,205 to 206 °C
2,C=CCc1c(C(=O)N(C)C)cn2cc(C)nc2c1OC(=O)C(C)(C)C,178 to 180 °C
3,COc1cccc2cc(CNCCNC(=O)C34CC5CC(CC3C5)C4)oc12,103 to 107 °C
4,NC1=NC(c2cccc(-c3cccnc3F)c2)(c2ccc3c(c2)OCCO3)C2=NCCCN12 (stereo unspecified),125 to 140 °C
5,"CC1C(C(=O)O)CC2CC1C2(C)C (single isomer, unassigned; (+))",128 °C
6,CC(CCCO)C1CCC2C3C(O)CC4CC(O)CCC4(C)C3CCC12C (stereo unspecified),116 to 118 °C
7,CC1CC2C(=CCC3(C)C2CCC3(O)C(=O)CO)C2(C)C=CC(=O)C=C12 (stereo unspecified),204 to 206 °C
8,CC1(C)Cc2nc(C3CCCC3)c(C(=O)c3ccc(C(F)(F)F)cc3)c(-c3ccsc3)c2C(O)C1 (stereo unspecified),179 to 182 °C
9,CC(C)c1cccc(C(C)C)c1NC(=O)C(Cc1ccc(OCc2ccccc2)cc1)NCc1ccccc1 (stereo unspecified),127 to 129 °C
10,Cn1c(-c2ccc(F)cc2)c(OCCOc2ccc(C=C3SC(=O)NC3=O)cc2)c(=O)c2ccccc21,225 to 228 °C
11,COC(=O)c1cc(OCCOc2cccc3ccccc23)cc(OCCOc2cccc3ccccc23)c1,132 to 137 °C
12,CN(c1nc(-c2cc3ccccc3[nH]c2=O)cs1)S(=O)(=O)c1cn(C)cn1,> 300 °C
13,O=S1(=O)c2cccc3cccc(c23)N1CCCN1CCN(c2ccccc2F)CC1,112 °C
14,CN(C)c1ccc(F)c(C#N)c1,72 to 72.5 °C
15,CC=C1CCC2C3CCC4CC(O)C(OCC)CC4(C)C3C(=O)CC12C (stereo unspecified),172 to 178 °C
16,CCCCCCCCCCCOCCCN=C=O,72 to 78 °C
17,CC(C)OC(=O)N1c2cncnc2NC(=S)C1C (racemic),203 to 204 °C
18,CCOC(C#CC(=NC(c1ccccc1)(c1ccccc1)c1ccccc1)C(F)F)OCC,173 to 175 °C
19,CC(=O)Nc1ccc(F)c(N2CCN(C(C)=O)CC2)n1,178 to 180 °C
20,CC(C)n1cc(-c2ccccc2)c(=O)c(-c2ccccc2)c1,152 °C
21,CNC(=S)C1(c2cccnc2)CCCCS1 (stereo unspecified),131 °C
22,COc1ccccc1CCC(=O)Nc1sc2c(c1C#N)CCN(C(=O)OC(C)(C)C)C2,198 °C

row,SMILES,melting point
1,COc1cc2cc(C3=CCN(C)CC3)oc2cc1OC,73 to 75 °C
2,O=c1[nH]c2cccnc2n1-c1ccncc1,265 to 267 °C
3,Cc1c(C)c(N2C(=O)c3ccccc3C2=O)c(C)c2c1OC(C)(C)C2c1ccc(C(C)C)cc1 (stereo unspecified),180 to 181 °C
4,O=S1(=O)c2cccc3cccc(c23)N1CCN1CCC(CC2=Cc3ccccc3C2)CC1,176 °C
5,CC(C)Cn1cnc2c(N)nc3ccc(-c4ccccc4)cc3c21,203 to 204 °C
6,NS(=O)(=O)c1ccc(S(=O)(=O)CCCO)c([N+](=O)[O-])c1,168 to 170 °C
7,CCc1nc2c(N)nc3ccc(-c4cccnc4)cc3c2n1CC(C)C,> 250 °C
8,CCn1c(C)c(C(c2ccco2)S(=O)(=O)c2ccc(C)cc2)c2ccccc21 (stereo unspecified),99.8 to 105 °C
9,CCCCCCCCCCCc1[nH]c2cc(C(=O)OC)ccc2c1C=O,147 to 149 °C
10,NC(N)=NC(=O)Cn1cccc1,214 °C
11,CC(O)(CCCC(F)(F)C(F)(F)C(F)(F)C(F)(F)C(F)(F)C(F)(F)F)CCCC(F)(F)C(F)(F)C(F)(F)C(F)(F)C(F)(F)C(F)(F)F,46 to 47 °C
12,Cc1ccc([N+](=O)[O-])cc1S(=O)(=O)N1CCOCC1,114 to 115 °C
13,Cn1c(=O)c2cccnc2n(C)c1=O,160 to 161 °C
14,CCCCCCCCC(SCCCC)C(=O)Nc1cccc2cnccc12 (stereo unspecified),73 to 75 °C
15,CN1CCC(c2cccc3c2C[C@H](NC(=O)c2ccc(N4CCOCC4)cc2)CC3)CC1,196 to 198 °C
16,CCS(=O)(=O)CCC(=O)NNC(=O)N1Cc2ccccc2Oc2ccc(O)cc21,191 to 194 °C
17,COc1ccc(N2CCC(=O)C2)cc1,104 to 105 °C
18,CC(C)C[C@H](NC(=O)[C@@H](S)Cc1ccccc1)C(=O)O,67 to 71 °C
19,O=c1ccc(S(=O)(=O)n2ccc3ccccc32)n[nH]1,169 to 170 °C
20,CN(C)c1ccc(NC(=O)c2cc3cc(C(F)(F)F)ccc3n2Cc2cccc(F)c2)cn1,192 to 193 °C
21,Cc1ccc(C(=O)c2ccccc2C2=NCCN2C(C)C)cc1,87 to 89 °C
22,Cc1ccsc1-c1[nH]nc2c1C(=O)c1c(NC(N)=O)cccc1-2,270 °C

# The next lines start with the values.
row,melting point,SMILES
1,211 to 213 °C,COn1c(=O)c2ccccc2n(-c2c(Cl)ccc(C)c2Cl)c1=O
2,304 to 306 °C,CC(C)(C)CC(=O)Nc1ccc2ncn3c(=O)c(C(=O)O)cnc3c2c1
3,125 to 128 °C,CCC(=O)c1cnc2c(O)cccc2c1Nc1ccccc1C
4,170 °C,CCOC(=O)/C=C/c1ccc(OCCOC)cc1NC(=O)c1ccc(Cl)cc1Cl
5,180 to 183 °C,CN(C)C(=O)Cn1c(-c2ccc(F)cc2)nc2cccnc21
6,136 to 138 °C,COc1ccc(-c2ccc3c(C)c(OC)ccc3c2)cc1
7,110 to 111 °C,CC1=NN(C)C(=O)C1(Cl)C(=O)c1cc(C)ccc1[N+](=O)[O-] (stereo unspecified)
8,161 °C,COc1cc2[nH]c(C(=O)OCc3ccccc3)cc2c(C)c1C
9,> 250 °C,O=C(Nc1cccc2c1ncc1c(=O)[nH]cnc12)c1c(Cl)cccc1Cl
10,61 to 63 °C,CCOC(=O)c1cnc2nn(C)cc2c1NCCCN(C)C
11,80 to 83 °C,CCCc1c(OCCCOc2ccc3c(c2CCC)OC(C)(CCC(=O)O)CC3=O)ccc(C(C)=O)c1O (stereo unspecified)
12,152 °C,Cc1c(C=NO)c2ccccc2n1C(=O)c1ccc(Cl)cc1
13,166 to 168 °C,CC1(N2C(=O)c3ccc(CNC(=O)c4ccc(S(C)(=O)=O)cc4)cc3C2=O)CCC(=O)NC1=O (stereo unspecified)
14,170 °C,CCS(=O)(=O)Nc1cccc(COc2cc(F)cc(Nc3ccc(I)cc3F)c2C(N)=O)c1
15,142 to 146 °C,COc1ccccc1N1CCN(CCCNC(=O)c2cccc3c(=O)c(C)c(CCc4ccccc4)oc23)CC1
16,115 °C,Cc1cccc(I)c1C(=O)Nc1ccccc1[N+](=O)[O-]
17,104 to 105 °C,Cc1ccc(C2COc3c(C)c(C)c(NCc4ccccc4)c(C)c32)nc1 (stereo unspecified)
18,158 to 160 °C,O=C(NC(=O)c1ccccc1Cl)Nc1cc(Cl)c(OC(F)(F)C(F)Cl)cc1Cl (stereo unspecified)
19,99 to 103 °C,CN(C)CCNc1cc(Sc2ccc(Cl)cc2)nc(-c2ccc(Cl)c(Cl)c2)n1
20,265 to 267 °C,COC(=O)c1cc2c(O)c(C(=O)NCc3ccc(Cl)cc3)cnc2nc1C
21,173 to 174 °C,CCOC(=O)c1nc(-c2ccc(F)cc2)c(-c2ccc(S(C)(=O)=O)cc2)s1
22,60 to 61 °C,COc1ccc(CC(=O)NO[C@@H](C)c2ccccc2)cc1
23,81 to 82 °C,COCCNC(=O)c1cccc(-c2cccc3cc(Cc4cccc(C(C)=O)c4)sc23)c1
24,112 to 120 °C,CC(C)(N)c1ccc(-c2nc(Nc3ccc(CCn4ccnc4)cc3)ncc2Cl)cc1F
25,228 to 231 °C,O=C(NC(=O)c1ccccc1Cl)Nc1ccc(-c2ccc(Cl)cc2)cn1
26,> 250 °C,O=C(O)Cn1c(-c2ccc(Cl)cc2)nc2ccc(Cl)nc21
27,227 to 228 °C,COc1ccc2nc3c(C)ccc([N+](=O)[O-])c3c(Cl)c2c1
28,110 to 150 °C,Cc1ccc(CN(C)C(=O)c2cnn(C)c2C(=O)Nc2ccn3nc(-c4ccccc4)nc3c2)cn1
29,160 °C,COc1ccc2c(c1)-c1nc(-c3ccccc3C)c(N)n1CC2
30,172 to 174 °C,Cc1oc(-c2ccc(Cl)cc2)nc1COc1cccc(/C=C/C(C)n2oc(=O)[nH]c2=O)c1 (stereo unspecified)

# — a melting point compilation (Tetko et al.; mined from patent text by program, amines drawn as free bases though some values may be those of a salt)
